Where “and” joins values, the source holds several entries; their conditions need not be identical. Identical values can stand only once. Non-standard residues stand in square brackets, D forms with d. Residues, ends and D or L forms follow the SMILES beside them. aThr = C[C@H](O)[C@H](N)C(=O)O; dPra = C#CC[C@@H](N)C(=O)O; dDap = NC[C@@H](N)C(=O)O

Data set [1] relates to proteasome. To be noted: background statement; cited from earlier work.
Data set [2] concerns the target T1, 20S CP.
T1 construct: purchased South Bay
Briefly: TAS-1 biochemical assay (20S CP stimulation). Also noted: key to Emax: % of DMSO control rate (percent stimulation); key to TAS-1: % of DMSO control rate of TAS-1 hydrolysis. To be noted: for EC50: dose-response curve; for EC50 / Emax: 20S CP stimulation; for Emax: maximal response of dose-response curve, in %; for TAS-1: percent stimulation of 20S CP, rate of TAS-1 hydrolysis normalized against DMSO, compounds tested at 10 μM, 5 nM 20S CP. The procedure:
Each compound was initially tested at 10 μM. Each well contained […] of 11.4 μM TAS-1 solution in Tris HCl (50 mM, pH 7.4) along with 5 nM of 20 sCP (South Bay). 1 μL of the test compound, control, or DMSO was added to the desired well to obtain a final DMSO concentration of 2%, with the total volume being 50 μL. Compounds were tested in three replicates that each had technical triplicates. The fluorescence was recorded using a SynergyNeo 2, where the excitation and emission was set to 335 nm and 493 nm. The plate reader was heated to 37° C. The fluorescence was recorded every 90 seconds over a 1-hour period. A simple linear regression was performed on the data plotted against time to obtain the rate of hydrolysis of TAS-1 by the 20S CP. The data was then normalized against DMSO to get the percent stimulation.

A further data set has as its system human red blood cells. Briefly: Hemolysis assay. The format is cell-based. To be noted: percent hemolysis, 1 hour at 37° C., table title 15 uM, method 20 μM, in %. As for the experimental part:
Whole human blood was purchased at BiolVT and used prior to its expiration. 100 μL blood was added to a 1.5 mL Eppendorf tub with 500 μL of sterile 0.9% NaCl. The tube was inverted multiple times to mix the solution. This mixture was centrifuged at 500 g for 7 minutes. The supernatant was extracted utilizing a pipette. The pellet was washed 2 more times. After the final wash, 800 μL of Red Blood Cell (RBC) buffer was added to the pellet to resuspend the red blood cells. 4 μL of the compounds (20 μM in DMSO, final concentration), 76 μL RBC buffer, and 40 μL resuspended red blood cells were added to a 96 U-well plate (VWR) and incubated for 1 hour at 37° C. The plate was spun at 500 g for 5 minutes. […] of the supernatant was transferred to a 96 flat-well plate. The absorbance was read at 540 nm utilizing a SpectraMax iD3 platereader. Percent hemolysis was measured from the average absorbance of the positive and negative controls. A minimum of 3 biological triplicates were performed.

The subject of data set [3] is T2, cytosolic proteasome in HEK293 T cells.
T2 construct: endogenous in cells; host or cells: HEK 293T
Briefly: Flow cytometry assay of proteasome stimulation in cellulo (epoxomicin probe). The following applies: for In-Cellulo: 10 μM stimulator, 2.5 μM epoxomicin probe, 1 hour, flow cytometry (FITC); for cellular stimulation of the proteasome (in words): 10 μM, flow cytometry. The format is cell-based. From the text:
Flow cytometry allows for the study of proteasomal activity in physiologically relevant conditions and presents a high-throughput alternative to traditional gel electrophoresis and western blotting techniques. To test the assay, the covalent fluorescent-based probe was applied in HEK293 T cells to quantify proteasome stimulation of CyPPSs alone and in the presence of the known proteasome stimulator miconazole and the known proteasome inhibitor MG132. The covalent fluorescent-based probe utilized an epoxy-ketone warhead that interacts with the β5 subunit of the proteasome, forming a covalent attachment and fluorescently tagging the proteasome. The addition of the CyPPSs induces a significant shift in the intracellular fluorescence (FIG. 6). This shift validated that CyPPSs can stimulate cytosolic proteasome in cellulo. […] However, their activity was lower than what would be expected based on their in vitro activity. This may be due to incomplete cellular uptake or escape from the endosomes. […] This is likely due to a combination of effects, including the inability to stimulate the proteasome (FIGS. 2A and 2B) as well as the generally poor cell permeability and stability of linear peptides.
Confluent HEK 293T cells were seeded into sterilized 2 mL Fisherbrand Eppendorf tubes in FBS free Dulbecco's Modified Eagle Medium (DMEM) at a concentration of 300,000 cells per tube. The cells were centrifuged at 1000 g for 5 minutes. The supernatant was removed, and the cells were resuspended in 500 μL of a 10 μM stimulator solution in FBS free DMEM. Cells were spun down at 1000 g for 5 minutes, and the supernatant was again removed. Cells were then resuspended in 500 μL of a 10 μM stimulator 2.5 μM epoxomicin probe in FBS-free DMEM and incubated for 1 hour at 37° C. Cells were again centrifuged at 1000 g for 5 minutes. Supernatant was then removed, and cells were washed once with cold PBS. Cells were then resuspended in 50 μL of cold PBS and placed on ice. Cellular fluorescence was measured by collecting 50,000 events using the FITC channel of a BD Accuri C6 Flow Cytometer and analyzed using FlowJo.

In data set [4] the test system is T1, 20S CP. As to the kind of experiment: Purified protein degradation assay. The format is biochemical. To be noted: 10 uM CyPPS, 5 nM 20S CP, 200 ng purified protein, 1 hour at 37° C.; for proteasomal degradation of α-synuclein: highly disordered protein; for proteasomal degradation of GAPDH / proteasomal degradation of lysozyme: low disordered protein. The procedure:
Proteins were diluted to 50 ng/μL in Tris HCl (50 mM, pH 7.6). The CyPPS were diluted to 30 μM in Tris HCl, with 6% DMSO. The 20S CP (South Bay) was diluted to 15 nM with Tris HCl. Each protein was performed with a latent level, basal level, and CyPPS in triplicate. The latent level was prepared with 4 μL protein and 8 μL of 3% DMSO in Tris HCl. The basal level contained 4 μL protein, 4 μL 20S CP, and 4 μL 6% DMSO in Tris HCl. The CyPPS was performed with 4 μL protein, 4 μL 20S CP, and 4 μL 30 μM CyPPS. The samples were incubated for 1 hour at 37° C. 4 μL of 4×SDS gel loading buffer was added and heated for 5 minutes at 95° C. The samples were run on a 15-well gradient gel for SDS-PAGE, stained with Coomassie, imaged with an imaging system, and quantified with ImageJ. Analysis was done via GraphPad PRISM9.

The subject of data set [5] is proteasome. The following applies: background statement; cited from earlier work. This is another data set of the same source.

In the case of `CCCCC/C=C\C/C=C\C/C=C\C/C=C\CCCC(=O)Nc1ccc(O)cc1` [AM-404], in the data set with proteasome [1], the “potency as proteasome stimulator (in words)” value (from here on “potency”) is recorded as “lack of potency”.
Broadly, the EC50 is the concentration needed to bring the measured effect to its halfway point. On to `CC(C)C[C@H]1NC(=O)[C@H]([C@H](C)O)NC(=O)[C@@H](C)NC(=O)[C@H](CCCNC(=N)N)NC(=O)[C@@H](Cc2ccccc2)NC(=O)[C@H](Cc2ccccc2)NC1=O` [CyPPS1, TLFFRA [SEQ ID NO: 1]] (cyclo(F[dF]R[dA][aThr][dL])), for which, at 20S CP [2], the EC50 turned out to be 6.4 µM, the Emax worked out at 282.9 and the TAS-1 is reported as 339.5 ± 15.7. For the same compound, the “percent stimulation of the proteasome in the SNaPP library screen” value in the data set with 20S CP [2] (library of 45 cyclic peptides, TAS-1 assay) was “highest percent stimulation”. Moreover, in the data set on human red blood cells, the Hemolysis worked out at 13 ± 1. Further, in data set [3], the In-Cellulo was 235.1 ± 5.5 and the “cellular stimulation of the proteasome (in words)” value (“cellular stimulation” below) was “significant cellular stimulation of the proteasome”. In the data set with 20S CP [4], the “proteasomal degradation of α-synuclein” value is reported as “greatly enhanced”, the “proteasomal degradation of GAPDH” value was “little-to-no effect” and the “proteasomal degradation of lysozyme” value was “little-to-no effect”.
`CC(C)C[C@H]1NC(=O)[C@H](CC(=O)O)NC(=O)[C@@H](C)NC(=O)[C@H](CCCNC(=N)N)NC(=O)[C@@H](Cc2ccccc2)NC(=O)[C@H](Cc2ccccc2)NC1=O` [CyPPS8, DLFFRA [SEQ ID NO: 8]] (cyclo(D[dL]F[dF]R[dA])): the “20S CP stimulatory activity (in words, SAR compared to CyPPS1)” value in the data set with 20S CP [2] (TAS-1 assay) is given as “maintained stimulatory activity”. For the same compound, at 20S CP [2], the EC50 worked out at 14.2 µM, the Emax came out at 701.4 and the TAS-1 was 372.2 ± 12.1. In the data set on human red blood cells, this compound showed a Hemolysis of 0 ± 0. In addition, the In-Cellulo in data set [3] was determined as 161.0 ± 31.7.
`CC(C)[C@H]1NC(=O)[C@H]([C@@H](C)O)NC(=O)[C@@H](C)NC(=O)[C@H](CCCNC(=N)N)NC(=O)[C@@H](Cc2ccccc2)NC(=O)[C@H](Cc2ccccc2)NC1=O` [CyPPS13, TVFFRA [SEQ ID NO: 13]] (cyclo(T[dV]F[dF]R[dA])): the “20S CP stimulatory activity (in words, SAR compared to CyPPS1)” value with 20S CP [2] (TAS-1 assay) was “retained activity”. For the same compound, on 20S CP [2], the EC50 is 4.1 µM and 4 µM; the Emax was 393 and 393.8; the TAS-1 turned out to be 422.4 ± 18.5. In the data set with human red blood cells, this compound came in with a Hemolysis of 5 ± 2. The In-Cellulo in data set [3] is listed as 173.7 ± 13.0.
With `C#CC[C@H]1NC(=O)[C@H]([C@@H](C)O)NC(=O)[C@@H](C)NC(=O)[C@H](CCCNC(=N)N)NC(=O)[C@@H](Cc2ccccc2)NC(=O)[C@H](Cc2ccccc2)NC1=O` [CyPPS14, TXFFRA [SEQ ID NO: 14]] (cyclo(T[dPra]F[dF]R[dA])), the “20S CP stimulatory activity (in words, SAR compared to CyPPS1)” value in the data set with 20S CP [2] (TAS-1 assay) is given as “retained stimulatory activity”. Besides, at 20S CP [2], the EC50 is 12.1 µM, the Emax amounted to 513.6 and the TAS-1 worked out at 387.9 ± 2.7. This compound displayed a Hemolysis in the data set on human red blood cells of 2 ± 1. Further, in data set [3], the In-Cellulo came out at 231.4 ± 31.7 and the “cellular stimulation” value is listed as “significant cellular stimulation of the proteasome”. Besides, in the data set with 20S CP [4], the “proteasomal degradation of α-synuclein” value was “greatly enhanced”, the “proteasomal degradation of GAPDH” value was “little-to-no effect” and the “proteasomal degradation of lysozyme” value is given as “little-to-no effect”.
Take `CC(C)C[C@H]1NC(=O)[C@H]([C@@H](C)O)NC(=O)[C@@H](CN)NC(=O)[C@H](CCCNC(=N)N)NC(=O)[C@@H](Cc2ccccc2)NC(=O)[C@H](Cc2ccccc2)NC1=O` [CyPPS23, TLFFRX [SEQ ID NO: 23]] (cyclo(T[dL]F[dF]R[dDap])): in the data set with 20S CP [2] (TAS-1 assay), the “20S CP stimulatory activity (in words, SAR compared to CyPPS1)” value was “maintained stimulatory activity”. Moreover, on 20S CP [2], the EC50 was 4 µM and 4.1 µM; the Emax is 391 and 390.9; the TAS-1 was found to be 352.4 ± 39.1. In the data set on human red blood cells, this compound gave a Hemolysis of 20 ± 4. In data set [3], the In-Cellulo is given as 247.3 ± 15.4 and the “cellular stimulation” value is given as “significant cellular stimulation of the proteasome”. In the data set on 20S CP [4], the “proteasomal degradation of α-synuclein” value is reported as “greatly enhanced”, the “proteasomal degradation of GAPDH” value was “little-to-no effect” and the “proteasomal degradation of lysozyme” value is reported as “little-to-no effect”.
Turning to `CC(C)c1ccc2c(c1)c(SC(C)(C)C)c(CC(C)(C)C(=O)O)n2Cc1ccc(Cl)cc1` [MK-866], the “activity in cell-based assays (in words)” value in the data set on proteasome [5] is “inactivity in cell-based assays”.
As for `CN(C)CCCN1c2ccccc2Sc2ccc(Cl)cc21` [chloropromazine], the “activity in cell-based assays (in words)” value with proteasome [5] is on record as “inactivity in cell-based assays”.
As for `Clc1ccc(COC(Cn2ccnc2)c2ccc(Cl)cc2Cl)c(Cl)c1` (centres unmarked) [miconazole], the “potency” value in the data set with proteasome [1] is “lack of potency”.
For `C[C@H]1[C@H](C)CC[C@]2(C(=O)O)CC[C@]3(C)C(=CC[C@@H]4[C@@]5(C)CC[C@H](O)C(C)(C)[C@@H]5CC[C@]43C)[C@H]12` [ursolic acid], the “potency” value in the data set with proteasome [1] is on record as “lack of potency”.

Source of the values: patent US20250073302A1, “CYCLIC PEPTIDES AS PROTEASOME STIMULATORS” (Purdue Research Foundation, priority 2023, published 2025).
